From ChEMBL document CHEMBL1201862, “PubChem BioAssay data set” (2004)
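Where inhibition never reached the appropriate level, the endpoint shown equals the highest concentration tested. Otherwise, values were interpolated linearly from a five-concentration, 48-hour dose response in 96-well plates. GI50 is the concentration that inhibits growth by half.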 Activity calls are given as the source filed them. No stated cut-off is given here; in the data, active = GI50 up to about 1.1 µM and inactive = higher.

What was measured:
Test in all cases: DTP human tumour cell line panel, 48 h
UO-31 = tested on: UO-31
HCC 2998 = tested on: HCC 2998
RPMI-8226 = tested on: RPMI-8226
COLO 205 = tested on: COLO 205
SK-MEL-5 = tested on: SK-MEL-5
KM12 = tested on: KM12
NCI-H226 = tested on: NCI-H226
IGROV-1 = tested on: IGROV-1
UACC-62 = tested on: UACC-62
PC-3 = tested on: PC-3
MDA-MB-231 = tested on: MDA-MB-231
HT-29 = tested on: HT-29
M14 = tested on: M14
HOP-92 = tested on: HOP-92
HCT-116 = tested on: HCT-116
MCF7 = tested on: MCF7
CAKI-1 = tested on: CAKI-1
HCT-15 = tested on: HCT-15
BT-549 = tested on: BT-549
EKVX = tested on: EKVX
A549 = tested on: A549
SF-295 = tested on: SF-295
CCRF-CEM = tested on: CCRF-CEM
OVCAR-3 = tested on: OVCAR-3
MDA-N = tested on: MDA-N
HOP-62 = tested on: HOP-62
NCI/ADR-RES = tested on: NCI/ADR-RES
MOLT-4 = tested on: MOLT-4
RXF 393 = tested on: RXF 393
NCI-H23 = tested on: NCI-H23
SW-620 = tested on: SW-620
SK-OV-3 = tested on: SK-OV-3
U-251 = tested on: U-251
OVCAR-8 = tested on: OVCAR-8
NCI-H460 = tested on: NCI-H460
OVCAR-4 = tested on: OVCAR-4
OVCAR-5 = tested on: OVCAR-5
786-0 = tested on: 786-0
ACHN = tested on: ACHN
SR = tested on: SR
Malme-3M = tested on: Malme-3M
UACC-257 = tested on: UACC-257
SN12C = tested on: SN12C
K562 = tested on: K562
SK-MEL-2 = tested on: SK-MEL-2
HL-60 = tested on: HL-60
DU-145 = tested on: DU-145
T47D = tested on: T47D
LOX IMVI = tested on: LOX IMVI
SF-268 = tested on: SF-268
NCI-H522 = tested on: NCI-H522
SNB-19 = tested on: SNB-19
SK-MEL-28 = tested on: SK-MEL-28
SF-539 = tested on: SF-539
TK-10 = tested on: TK-10

SC1=NC2=C(CSC/C2=C\c2ccccc2)C(c2ccccc2)N1 (stereo not given)
GI50 (UO-31): 33.8 µM (inactive) | GI50 (HCC 2998): 42.5 µM (inactive) | GI50 (RPMI-8226): 35.2 µM (inactive) | GI50 (COLO 205): 37.5 µM (inactive) | GI50 (SK-MEL-5): 12.1 µM (inactive) | GI50 (KM12): 41 µM (inactive) | GI50 (NCI-H226): 56.4 µM (inactive) | GI50 (IGROV-1): > 100 µM (inactive) | GI50 (UACC-62): 27.9 µM (inactive) | GI50 (PC-3): 34.4 µM (inactive) | GI50 (MDA-MB-231): 45.1 µM (inactive) | GI50 (HT-29): 32.6 µM (inactive) | GI50 (M14): 54.1 µM (inactive) | GI50 (HOP-92): 37.6 µM (inactive) | GI50 (HCT-116): 29.5 µM (inactive) | GI50 (MCF7): 30.9 µM (inactive) | GI50 (CAKI-1): > 100 µM (inactive) | GI50 (HCT-15): 41.7 µM | GI50 (BT-549): 26.2 µM (inactive) | GI50 (EKVX): 45.5 µM (inactive) | GI50 (A549): 38.5 µM (inactive) | GI50 (SF-295): 21.6 µM (inactive) | GI50 (CCRF-CEM): 36.6 µM (inactive) | GI50 (OVCAR-3): > 100 µM (inactive) | GI50 (MDA-N): 31.3 µM (inactive) | GI50 (HOP-62): > 100 µM (inactive) | GI50 (NCI/ADR-RES): 47.5 µM (inactive) | GI50 (MOLT-4): 27.7 µM (inactive) | GI50 (RXF 393): 27.9 µM (inactive) | GI50 (NCI-H23): 31.9 µM (inactive) | GI50 (SW-620): 48.3 µM (inactive) | GI50 (SK-OV-3): 92.7 µM (inactive) | GI50 (U-251): 35 µM (inactive) | GI50 (OVCAR-8): 42.2 µM (inactive) | GI50 (NCI-H460): 33 µM (inactive) | GI50 (OVCAR-4): > 100 µM (inactive) | GI50 (OVCAR-5): > 100 µM (inactive) | GI50 (786-0): 34.2 µM (inactive) | GI50 (ACHN): 49.7 µM (inactive) | GI50 (SR): 32.7 µM (inactive) | GI50 (Malme-3M): 28.6 µM (inactive) | GI50 (UACC-257): 22.3 µM (inactive) | GI50 (SN12C): 38.1 µM (inactive) | GI50 (K562): 30.3 µM (inactive) | GI50 (SK-MEL-2): 49.3 µM (inactive) | GI50 (HL-60): 15.2 µM (inactive) | GI50 (DU-145): 95.1 µM (inactive) | GI50 (T47D): 56.4 µM (inactive) | GI50 (LOX IMVI): 38.1 µM (inactive) | GI50 (SF-268): 64.6 µM (inactive) | GI50 (NCI-H522): 59.4 µM (inactive) | GI50 (SNB-19): 39.6 µM (inactive) | GI50 (SK-MEL-28): > 100 µM (inactive) | GI50 (SF-539): 76.6 µM (inactive) | GI50 (TK-10): 61.8 µM (inactive)
